Numbers after ± are expanded uncertainties.
Assay: xn = mol fraction of the nth substance listed
Details: 100.7 kPa, Liquid; for speed of sound: Frequency=3 MHz, Sing-around technique in a fixed-path interferometer; for mass density: Vibrating tube method

CCCCn1cc[n+](C)c1.F[P-](F)(F)(F)(F)F [1-butyl-3-methylimidazolium hexafluorophosphate] + C1CCOC1
Details | mass density [kg/m3] | speed of sound [m/s]
293.15 K, x1 = 0.0871 | 995.952 ± 1.6 | 1325.2 ± 2.3
293.15 K, x1 = 0.1801 | 1081.84 ± 1.6 | 1346.3 ± 2.3
293.15 K, x1 = 0.2893 | 1156.12 ± 1.6 | 1370.2 ± 2.4
293.15 K, x1 = 0.3939 | 1209.17 ± 1.7 | 1390.1 ± 2.4
293.15 K, x1 = 0.4994 | 1250.52 ± 1.7 | 1405.6 ± 2.5
293.15 K, x1 = 0.5709 | 1274.06 ± 1.8 | 1414.3 ± 2.6
293.15 K, x1 = 0.7163 | 1313.42 ± 1.9 | 1431.1 ± 2.7
293.15 K, x1 = 0.8069 | 1333.96 ± 2 | 1439.1 ± 2.7
293.15 K, x1 = 0.9012 | 1352.78 ± 2.1 | 1447.9 ± 2.8
293.15 K, x1 = 1 | 1370.41 ± 2.2 | 1454.6 ± 2.9
298.15 K, x1 = 0.0871 | 993.083 ± 1.6 | 1305.7 ± 2.3
298.15 K, x1 = 0.1801 | 1078.67 ± 1.6 | 1329.4 ± 2.3
298.15 K, x1 = 0.2893 | 1153.55 ± 1.6 | 1354.8 ± 2.4
298.15 K, x1 = 0.3939 | 1206.51 ± 1.7 | 1375.2 ± 2.4
298.15 K, x1 = 0.4994 | 1247.95 ± 1.7 | 1391.7 ± 2.5
298.15 K, x1 = 0.5709 | 1270.99 ± 1.8 | 1400.3 ± 2.6
298.15 K, x1 = 0.7163 | 1309.95 ± 1.9 | 1419.2 ± 2.7
298.15 K, x1 = 0.8069 | 1330.6 ± 2 | 1428.8 ± 2.7
298.15 K, x1 = 0.9012 | 1349.01 ± 2.1 | 1436.5 ± 2.8
298.15 K, x1 = 1 | 1366.26 ± 2.2 | 1442.3 ± 2.9
303.15 K, x1 = 0.0871 | 989.595 ± 1.6 | 1286.1 ± 2.3
303.15 K, x1 = 0.1801 | 1076.18 ± 1.6 | 1313.5 ± 2.3
303.15 K, x1 = 0.2893 | 1151.06 ± 1.6 | 1337.9 ± 2.4
303.15 K, x1 = 0.3939 | 1204.02 ± 1.7 | 1359.3 ± 2.4
303.15 K, x1 = 0.4994 | 1245.06 ± 1.7 | 1375.7 ± 2.5
303.15 K, x1 = 0.5709 | 1268.4 ± 1.8 | 1386.6 ± 2.6
303.15 K, x1 = 0.7163 | 1306.96 ± 1.9 | 1406.2 ± 2.7
303.15 K, x1 = 0.8069 | 1327.01 ± 2 | 1416.4 ± 2.7
303.15 K, x1 = 0.9012 | 1345.27 ± 2.1 | 1425.1 ± 2.8
303.15 K, x1 = 1 | 1362.13 ± 2.2 | 1430.2 ± 2.9
308.15 K, x1 = 0.0871 | 986.865 ± 1.6 | 1264.2 ± 2.3
308.15 K, x1 = 0.1801 | 1073.65 ± 1.6 | 1294.6 ± 2.3
308.15 K, x1 = 0.2893 | 1148.53 ± 1.6 | 1322.9 ± 2.4
308.15 K, x1 = 0.3939 | 1201.49 ± 1.7 | 1344.4 ± 2.4
308.15 K, x1 = 0.4994 | 1242.03 ± 1.7 | 1362.9 ± 2.5
308.15 K, x1 = 0.5709 | 1265.07 ± 1.8 | 1374.2 ± 2.6
308.15 K, x1 = 0.7163 | 1303.84 ± 1.9 | 1394.4 ± 2.7
308.15 K, x1 = 0.8069 | 1323.78 ± 2 | 1404.5 ± 2.7
308.15 K, x1 = 0.9012 | 1341.44 ± 2.1 | 1414.8 ± 2.8
308.15 K, x1 = 1 | 1357.86 ± 2.2 | 1418.4 ± 2.9
313.15 K, x1 = 0.0871 | 983.099 ± 1.6 | 1243.5 ± 2.3
313.15 K, x1 = 0.1801 | 1072.08 ± 1.6 | 1276.9 ± 2.3
313.15 K, x1 = 0.2893 | 1145.97 ± 1.6 | 1306.3 ± 2.4
313.15 K, x1 = 0.3939 | 1198.83 ± 1.7 | 1329.7 ± 2.4
313.15 K, x1 = 0.4994 | 1239.66 ± 1.7 | 1347.2 ± 2.5
313.15 K, x1 = 0.5709 | 1261.91 ± 1.8 | 1358.4 ± 2.6
313.15 K, x1 = 0.7163 | 1300.27 ± 1.9 | 1380.9 ± 2.7
313.15 K, x1 = 0.8069 | 1320.11 ± 2 | 1392.8 ± 2.7
313.15 K, x1 = 0.9012 | 1337.58 ± 2.1 | 1398.9 ± 2.8
313.15 K, x1 = 1 | 1353.88 ± 2.2 | 1406.7 ± 2.9
318.15 K, x1 = 0.0871 | 979.072 ± 1.6 | 1220.9 ± 2.3
318.15 K, x1 = 0.1801 | 1069.07 ± 1.6 | 1258.4 ± 2.3
318.15 K, x1 = 0.2893 | 1144.86 ± 1.6 | 1289.6 ± 2.4
318.15 K, x1 = 0.3939 | 1197.02 ± 1.7 | 1313.9 ± 2.4
318.15 K, x1 = 0.4994 | 1238.26 ± 1.7 | 1333 ± 2.5
318.15 K, x1 = 0.5709 | 1259.52 ± 1.8 | 1344 ± 2.6
318.15 K, x1 = 0.7163 | 1297.6 ± 1.9 | 1367.3 ± 2.7
318.15 K, x1 = 0.8069 | 1316.65 ± 1.9 | 1380.3 ± 2.7
318.15 K, x1 = 0.9012 | 1333.97 ± 2.1 | 1389.5 ± 2.8
318.15 K, x1 = 1 | 1349.88 ± 2.2 | 1395.2 ± 2.9
323.15 K, x1 = 0.0871 | 974.942 ± 1.7 | 1200.6 ± 2.3
323.15 K, x1 = 0.1801 | 1067.03 ± 1.6 | 1239.9 ± 2.3
323.15 K, x1 = 0.2893 | 1143.59 ± 1.7 | 1272.2 ± 2.4
323.15 K, x1 = 0.3939 | 1195.57 ± 1.7 | 1295.6 ± 2.4
323.15 K, x1 = 0.4994 | 1235.58 ± 1.7 | 1319.5 ± 2.5
323.15 K, x1 = 0.5709 | 1256.95 ± 1.8 | 1330.6 ± 2.5
323.15 K, x1 = 0.7163 | 1294.51 ± 1.9 | 1355.4 ± 2.7
323.15 K, x1 = 0.8069 | 1312.86 ± 1.9 | 1368.5 ± 2.7
323.15 K, x1 = 0.9012 | 1329.92 ± 2.1 | 1378.6 ± 2.8
323.15 K, x1 = 1 | 1345.57 ± 2.2 | 1384.1 ± 2.9

Source: the NIST ThermoML archive (doi:10.1016/j.jct.2015.02.011)
